Among the test systems are RXF 393 renal; HS 578T breast; UACC-257 melanoma; HCC-2998 colon; NCI/ADR-RES ovarian; NCI-H226 lung; NCI-H460 lung; NCI-H23 lung; DMS 114 small cell lung; M19-MEL melanoma.
Common to all, as to assay: NCI anticancer screen, dose series, 48 h

Several values for one entry are separate records, joined by “and”; a condition that tells them apart may be missing. Equal entries are not always repeated.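 Exposure lasted 48 hours, with cells grown in 96-well plates and compounds tested at five concentrations. GI50 marks 50% less growth. The concentration for full growth arrest is given as TGI.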 Bounds are passed on as bounds.

Take `COc1ccc(-c2nc3sc4c(c3c(=O)[nH]2)CCCC4)c2ccccc12`: the GI50 in the assay on RXF 393 renal is 0.253 µM; in the assay with UACC-257 melanoma, 1.56 µM and 4.95 µM; in the assay with NCI-H226 lung, 1.41 µM; with NCI-H460 lung, 0.381 µM; in the assay on NCI-H23 lung, 0.57 µM. Moreover, the TGI in the assay on RXF 393 renal was 0.799 µM; in the assay with HS 578T breast, 0.093 µM; in the assay with UACC-257 melanoma, over 100 µM; in the assay on HCC-2998 colon it was 79.1 µM; in the assay with NCI/ADR-RES ovarian, 4.95 µM and 2.75 µM.

Turning to `Cc1ccc(/C(=C/C=C(C#N)C#N)Sc2ccccn2)cc1`, the GI50 in the assay with RXF 393 renal was 15.6 µM; in the assay on HS 578T breast, 2.46 µM; with UACC-257 melanoma it was 14.6 µM; in the assay with HCC-2998 colon, 3.85 µM; with NCI/ADR-RES ovarian, 4.63 µM; in the assay on NCI-H226 lung it was 2.53 µM. Moreover, the GI50 in the assay with NCI-H460 lung is 4.62 µM; in the assay on NCI-H23 lung it was 3.68 µM. Moreover, the TGI in the assay on RXF 393 renal was over 28.1 µM; in the assay on HS 578T breast, 8.32 µM; in the assay on UACC-257 melanoma it was 28.1 µM; in the assay with HCC-2998 colon it was 8.84 µM; in the assay on NCI/ADR-RES ovarian, 13.2 µM; in the assay on NCI-H226 lung, 7.06 µM. Also, the results for the TGI with NCI-H460 lung and with NCI-H23 lung were 21 µM and 10.9 µM, respectively.

For `CC[C@@]1(O)C(=O)OCc2c1cc1n(c2=O)Cc2cc3c(NC(=O)CN)cccc3nc2-1`, the TGI in the assay on RXF 393 renal was 0.354 µM; with HS 578T breast, over 100 µM; with UACC-257 melanoma, 13.2 µM; with HCC-2998 colon, 9.05 µM; in the assay on NCI/ADR-RES ovarian it was over 100 µM; with NCI-H226 lung, 3.79 µM. Moreover, the TGI in the assay with NCI-H460 lung worked out at 2.94 µM; in the assay with NCI-H23 lung it was 4.26 µM.

On to `COc1ccc2c(c1)[C@@]1(C)CCC3c4ccc(O)cc4CCC3C1C2` (stereo partly specified), for which the GI50 is 10.5 µM in the assay with RXF 393 renal; 19.4 µM in the assay on HS 578T breast; 17.7 µM with UACC-257 melanoma; 18 µM with HCC-2998 colon; 14.4 µM in the assay with NCI/ADR-RES ovarian; 18.7 µM in the assay with NCI-H226 lung. Moreover, the GI50 was 9.02 µM with NCI-H460 lung and 16.8 µM in the assay with NCI-H23 lung. Moreover, the TGI in the assay with RXF 393 renal was 34.5 µM; in the assay on HS 578T breast it was 39.3 µM; in the assay on UACC-257 melanoma, 33.7 µM; in the assay on HCC-2998 colon it was 32.3 µM; in the assay on NCI/ADR-RES ovarian, 29.3 µM; in the assay with NCI-H226 lung it was 38.2 µM. Besides, the TGI is 23.2 µM in the assay on NCI-H460 lung and 30.8 µM in the assay with NCI-H23 lung.

On to `CCOC(=O)[C@H]1Nc2ccc(Cl)cc2[C@H]2c3ccccc3O[C@H]21`, for which the TGI in the assay with RXF 393 renal, in the assay on UACC-257 melanoma, in the assay on HCC-2998 colon, in the assay with NCI-H226 lung, in the assay with NCI-H460 lung and in the assay with DMS 114 small cell lung was over 100 µM each time. Moreover, in the assay with M19-MEL melanoma, the TGI is over 100 µM.

For `Cc1ccc2nc(N/N=C/c3cccc(C)n3)cc(C)c2c1`, the TGI with RXF 393 renal is 31.6 µM; in the assay on HS 578T breast, 50.9 µM; in the assay on UACC-257 melanoma it was 31.8 µM; in the assay on HCC-2998 colon, 27.6 µM; in the assay with NCI/ADR-RES ovarian, 48 µM; in the assay on NCI-H226 lung, 48.6 µM. Besides, the TGI in the assay on NCI-H460 lung is 23.2 µM; in the assay on NCI-H23 lung, 43.2 µM.

On to `Cc1cc(C)c2c(N)c3cccc(C)c3nc2n1`, for which the GI50 with RXF 393 renal is 1.64 µM; with HS 578T breast, 3.25 µM; in the assay with UACC-257 melanoma, 2.15 µM; with HCC-2998 colon it was 1.94 µM; in the assay with NCI/ADR-RES ovarian it was 1.54 µM; in the assay with NCI-H226 lung it was 1.2 µM. The GI50 in the assay with NCI-H460 lung is 1.4 µM; in the assay with NCI-H23 lung, 1.59 µM. Also, the TGI in the assay on RXF 393 renal is 3.57 µM; in the assay with HS 578T breast it was 25.1 µM; in the assay on UACC-257 melanoma, 4.45 µM; with HCC-2998 colon, 4.92 µM; with NCI/ADR-RES ovarian it was 3.99 µM; with NCI-H226 lung, 4.49 µM. Besides, the figures for the TGI in the assay with NCI-H460 lung and with NCI-H23 lung were 4.22 µM and 3.96 µM, respectively.

Take `CCOC(=O)C(=O)Nc1ccc(Cl)c(C(F)(F)F)c1`: the TGI with RXF 393 renal, in the assay on UACC-257 melanoma, with HCC-2998 colon, in the assay with NCI-H226 lung, in the assay on NCI-H23 lung and in the assay on DMS 114 small cell lung was over 100 µM in each case. Moreover, the TGI with M19-MEL melanoma was over 100 µM.

As to `O=C1C=CC(=O)c2c1ncc1c2nc2sccn21`, the GI50 with RXF 393 renal was 20.8 µM; in the assay with HS 578T breast, 12.7 µM; with UACC-257 melanoma it was 20.2 µM; in the assay on HCC-2998 colon it was 78.9 µM; with NCI/ADR-RES ovarian, 29.3 µM; in the assay with NCI-H226 lung, 37.6 µM. The figures for the GI50 in the assay on NCI-H460 lung and in the assay on NCI-H23 lung were 27.2 µM and 22.2 µM, respectively. The TGI with RXF 393 renal is 64.8 µM; in the assay with HS 578T breast, 50.8 µM; with UACC-257 melanoma, 37.2 µM; in the assay on HCC-2998 colon, over 100 µM; with NCI/ADR-RES ovarian, over 100 µM; with NCI-H226 lung, over 100 µM. For the same compound, the figures for the TGI in the assay on NCI-H460 lung and in the assay on NCI-H23 lung were over 100 µM and 83.7 µM, respectively.

As for `COc1cc(OC)cc(-c2cncn2-c2ccc(-c3nc4cc(OC)cc(OC)c4s3)cc2)c1`, the GI50 in the assay on RXF 393 renal was 6.58 µM; with HS 578T breast, 5.02 µM; with UACC-257 melanoma it was over 100 µM; in the assay on HCC-2998 colon, over 100 µM; in the assay with NCI/ADR-RES ovarian, 2.58 µM; in the assay with NCI-H226 lung it was 18.5 µM. Also, the figures for the GI50 in the assay on NCI-H460 lung and in the assay with NCI-H23 lung were 4.41 µM and 10.3 µM, respectively. Also, the TGI in the assay with RXF 393 renal, in the assay with HS 578T breast, in the assay with UACC-257 melanoma, in the assay on HCC-2998 colon, with NCI/ADR-RES ovarian and in the assay on NCI-H226 lung was over 100 µM each time. Also, the TGI with NCI-H460 lung and with NCI-H23 lung was over 100 µM throughout.

On to `Cc1ccc(Oc2nc3ccccc3cc2-c2nnc(Cn3c(COc4ccccc4)nc4ccccc43)o2)cc1`, for which the GI50 with RXF 393 renal is 2.71 µM; with HS 578T breast, 4.39 µM; in the assay with UACC-257 melanoma it was 3.28 µM; in the assay with HCC-2998 colon, 4.4 µM; in the assay on NCI/ADR-RES ovarian it was 2.84 µM; in the assay with NCI-H226 lung, 5.99 µM. Further, the GI50 was 10.4 µM with NCI-H460 lung and 4.66 µM with NCI-H23 lung. The TGI in the assay on RXF 393 renal is 10.6 µM; in the assay with HS 578T breast it was 33.8 µM; with UACC-257 melanoma it was 14.9 µM; in the assay on HCC-2998 colon, 15.3 µM; in the assay on NCI/ADR-RES ovarian, 10.9 µM; in the assay on NCI-H226 lung, 31.4 µM. Further, the results for the TGI with NCI-H460 lung and with NCI-H23 lung were 24.4 µM and 20.7 µM, respectively.

Source of the values: PubChem BioAssay (NCI).
